PubChem BioAssay (NCI)
Where “and” joins values, the source holds several entries; their conditions need not be identical. Identical values can stand only once.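 Method: 48-hour compound exposure of cells in 96-well plates, five concentrations, linear interpolation of endpoints. Here, GI50 denotes the concentration required for 50% inhibition of growth. The concentration for full growth arrest is given as TGI.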

Tests used:
Experiment in all cases: growth of human tumour cells (NCI), 48 h
HCC-2998 colon = test system: HCC-2998 colon
HS 578T breast = test system: HS 578T breast
K-562 leukemia = test system: K-562 leukemia
U251 CNS = test system: U251 CNS
NCI-H460 lung = test system: NCI-H460 lung
PC-3 prostate = test system: PC-3 prostate
NCI/ADR-RES ovarian = test system: NCI/ADR-RES ovarian
LOX IMVI melanoma = test system: LOX IMVI melanoma
HCT-15 colon = test system: HCT-15 colon
UO-31 renal = test system: UO-31 renal

| Structure (SMILES) | GI50 (HCC-2998 colon) | TGI (HCC-2998 colon) | GI50 (HS 578T breast) | TGI (HS 578T breast) | GI50 (K-562 leukemia) | TGI (K-562 leukemia) [µM] | GI50 (U251 CNS) | TGI (U251 CNS) | GI50 (NCI-H460 lung) | TGI (NCI-H460 lung) [µM] | GI50 (PC-3 prostate) | TGI (PC-3 prostate) [µM] | GI50 (NCI/ADR-RES ovarian) | TGI (NCI/ADR-RES ovarian) | GI50 (LOX IMVI melanoma) | TGI (LOX IMVI melanoma) | GI50 (HCT-15 colon) | TGI (HCT-15 colon) [µM] | GI50 (UO-31 renal) | TGI (UO-31 renal) |
| --- | --- | --- | --- | --- | --- | --- | --- | --- | --- | --- | --- | --- | --- | --- | --- | --- | --- | --- | --- | --- |
| Cc1cc2c(F)c(Oc3ncnc(Nc4ccc(N5C[C@@H](C)N[C@@H](C)C5)cc4)c3C#N)cc(F)c2[nH]1 | 1.97 µM | 4.14 µM | 1.77 µM | 5.4 µM | 1.62 µM | 3.83 | 1.72 µM | 4.47 µM | 2.06 µM | 4.37 | 3.05 µM | 11.4 | 3.85 µM | 20.9 µM | 1.6 µM | 3.08 µM | 1.73 µM | 4.24 | 1.1 µM | 3.39 µM |
| CCCc1nn(C)c2c(=O)[nH]c(-c3cc(S(=O)(=O)N4CCN(C)CC4)ccc3OCC)nc12 | > 100 µM | > 100 µM | 21.6 µM | > 100 µM | > 100 µM | > 100 | > 100 µM | > 100 µM | > 100 µM | > 100 | > 100 µM | > 100 | > 100 µM | > 100 µM | > 100 µM | > 100 µM | > 100 µM | > 100 | > 100 µM | > 100 µM |
| CC1SC(c2ccccc2Cl)N(NC(=O)C(O)c2ccccc2)C1=O (stereo not drawn) | > 100 µM | > 100 µM | 85.3 µM | > 100 µM | 58.5 µM | > 100 | 66.9 µM | > 100 µM | 66.9 µM | > 100 | 45.6 µM | > 100 | 66 µM | > 100 µM | > 100 µM | > 100 µM | 66.9 µM | > 100 | 74.9 µM | > 100 µM |
| Cc1c(CN2CCN(C(=O)[C@H](C)O)CC2)sc2c(N3CCOCC3)nc(-c3cnc(N)nc3)nc12 | 0.552 µM and 0.242 µM | 9.79 µM and 13.1 µM | 0.0539 µM and 0.0446 µM | 0.541 µM and 0.352 µM | 1.5 µM and 2.39 µM | > 100 | 1.05 µM and 0.328 µM | > 35.8 µM | 0.12 µM and 0.108 µM | > 100 | 0.122 µM and 0.0753 µM | > 100 | 0.663 µM and 0.408 µM | > 30.2 µM | 0.153 µM and 0.179 µM | 3.05 µM and 2.64 µM | 0.258 µM and 0.248 µM | > 100 | 0.0579 µM and 0.053 µM | 1.35 µM and 0.658 µM |
| CC1=C(C#N)C23C(=O)N(c4ccccc4)C(=O)C2=C(O)C=CC3(O)N1Cc1ccc(Cl)cc1Cl (stereo not drawn) | 1.81 µM | 3.82 µM | 3.13 µM | 11.6 µM | 3.76 µM | 9.26 | 2.86 µM | 11.3 µM | 3.09 µM | 12.3 | 4.68 µM | 17.1 | 16.2 µM | 39.5 µM | 1.59 µM | 2.94 µM | 5.88 µM | 19 | 5.42 µM | 19.6 µM |
| CC(C)(C)OC(=O)C1C(=O)NC(=O)CC1CC(OCc1ccccc1)C(OCc1ccccc1)C(COCc1ccccc1)OCc1ccccc1 (stereo not drawn) | – | > 100 µM | – | > 100 µM | 41.5 µM and 11 µM | > 100 | 19.6 µM and 5.39 µM | > 100 µM and 56.3 µM | 32.7 µM and 12.1 µM | > 100 | 54.7 µM and 8.16 µM | > 100 | 36.8 µM and 12.1 µM | > 100 µM and 61.7 µM | 34.7 µM and 8.43 µM | > 100 µM and 21.4 µM | 60.5 µM and 21.4 µM | > 100 | 11.1 µM and 4.48 µM | 24.8 µM and 16.2 µM |
